# According to patent US20250270209A1 (INTERLINE THERAPEUTICS, INC., priority 2022, published 2025):
# Columns and labels:
# [1] = target: LRRK2 wild type enzyme (Homo sapiens, UniProt Q5S007); assay: Biochemical Assay: LRRK2 TR-FRET (LanthaScreen) kinase assay with LRRKtide substrate; details: LRRK2 Inhibition, Table 8
# In short: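 Human wild-type LRRK2 (3 nM) preincubated 15 min with compound (11-point, 3-fold, top 10 μM), then reacted 120 min at 23 °C with 400 nM LRRKtide and 25 μM ATP, pH 8.0. Stopped with EDTA; Tb-anti-pLRRKtide TR-FRET read after 30 min.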
# [2] = target: T1, wild type LRRK2 overexpressed in recombinant HEK-293T cells (Homo sapiens, UniProt Q5S007); assay: pS935 LRRK2 Cell Assay (HTRF, phospho-LRRK2 Ser935); type: cell-based; details: LRRK2 Inhibition, Table 8, 2 hours compound incubation
# T1 construct: host or cells: HEK293T (transient transfection with pCMV-LRRK2 WT plasmid)
# T1 sequence (Q5S007 whole entry): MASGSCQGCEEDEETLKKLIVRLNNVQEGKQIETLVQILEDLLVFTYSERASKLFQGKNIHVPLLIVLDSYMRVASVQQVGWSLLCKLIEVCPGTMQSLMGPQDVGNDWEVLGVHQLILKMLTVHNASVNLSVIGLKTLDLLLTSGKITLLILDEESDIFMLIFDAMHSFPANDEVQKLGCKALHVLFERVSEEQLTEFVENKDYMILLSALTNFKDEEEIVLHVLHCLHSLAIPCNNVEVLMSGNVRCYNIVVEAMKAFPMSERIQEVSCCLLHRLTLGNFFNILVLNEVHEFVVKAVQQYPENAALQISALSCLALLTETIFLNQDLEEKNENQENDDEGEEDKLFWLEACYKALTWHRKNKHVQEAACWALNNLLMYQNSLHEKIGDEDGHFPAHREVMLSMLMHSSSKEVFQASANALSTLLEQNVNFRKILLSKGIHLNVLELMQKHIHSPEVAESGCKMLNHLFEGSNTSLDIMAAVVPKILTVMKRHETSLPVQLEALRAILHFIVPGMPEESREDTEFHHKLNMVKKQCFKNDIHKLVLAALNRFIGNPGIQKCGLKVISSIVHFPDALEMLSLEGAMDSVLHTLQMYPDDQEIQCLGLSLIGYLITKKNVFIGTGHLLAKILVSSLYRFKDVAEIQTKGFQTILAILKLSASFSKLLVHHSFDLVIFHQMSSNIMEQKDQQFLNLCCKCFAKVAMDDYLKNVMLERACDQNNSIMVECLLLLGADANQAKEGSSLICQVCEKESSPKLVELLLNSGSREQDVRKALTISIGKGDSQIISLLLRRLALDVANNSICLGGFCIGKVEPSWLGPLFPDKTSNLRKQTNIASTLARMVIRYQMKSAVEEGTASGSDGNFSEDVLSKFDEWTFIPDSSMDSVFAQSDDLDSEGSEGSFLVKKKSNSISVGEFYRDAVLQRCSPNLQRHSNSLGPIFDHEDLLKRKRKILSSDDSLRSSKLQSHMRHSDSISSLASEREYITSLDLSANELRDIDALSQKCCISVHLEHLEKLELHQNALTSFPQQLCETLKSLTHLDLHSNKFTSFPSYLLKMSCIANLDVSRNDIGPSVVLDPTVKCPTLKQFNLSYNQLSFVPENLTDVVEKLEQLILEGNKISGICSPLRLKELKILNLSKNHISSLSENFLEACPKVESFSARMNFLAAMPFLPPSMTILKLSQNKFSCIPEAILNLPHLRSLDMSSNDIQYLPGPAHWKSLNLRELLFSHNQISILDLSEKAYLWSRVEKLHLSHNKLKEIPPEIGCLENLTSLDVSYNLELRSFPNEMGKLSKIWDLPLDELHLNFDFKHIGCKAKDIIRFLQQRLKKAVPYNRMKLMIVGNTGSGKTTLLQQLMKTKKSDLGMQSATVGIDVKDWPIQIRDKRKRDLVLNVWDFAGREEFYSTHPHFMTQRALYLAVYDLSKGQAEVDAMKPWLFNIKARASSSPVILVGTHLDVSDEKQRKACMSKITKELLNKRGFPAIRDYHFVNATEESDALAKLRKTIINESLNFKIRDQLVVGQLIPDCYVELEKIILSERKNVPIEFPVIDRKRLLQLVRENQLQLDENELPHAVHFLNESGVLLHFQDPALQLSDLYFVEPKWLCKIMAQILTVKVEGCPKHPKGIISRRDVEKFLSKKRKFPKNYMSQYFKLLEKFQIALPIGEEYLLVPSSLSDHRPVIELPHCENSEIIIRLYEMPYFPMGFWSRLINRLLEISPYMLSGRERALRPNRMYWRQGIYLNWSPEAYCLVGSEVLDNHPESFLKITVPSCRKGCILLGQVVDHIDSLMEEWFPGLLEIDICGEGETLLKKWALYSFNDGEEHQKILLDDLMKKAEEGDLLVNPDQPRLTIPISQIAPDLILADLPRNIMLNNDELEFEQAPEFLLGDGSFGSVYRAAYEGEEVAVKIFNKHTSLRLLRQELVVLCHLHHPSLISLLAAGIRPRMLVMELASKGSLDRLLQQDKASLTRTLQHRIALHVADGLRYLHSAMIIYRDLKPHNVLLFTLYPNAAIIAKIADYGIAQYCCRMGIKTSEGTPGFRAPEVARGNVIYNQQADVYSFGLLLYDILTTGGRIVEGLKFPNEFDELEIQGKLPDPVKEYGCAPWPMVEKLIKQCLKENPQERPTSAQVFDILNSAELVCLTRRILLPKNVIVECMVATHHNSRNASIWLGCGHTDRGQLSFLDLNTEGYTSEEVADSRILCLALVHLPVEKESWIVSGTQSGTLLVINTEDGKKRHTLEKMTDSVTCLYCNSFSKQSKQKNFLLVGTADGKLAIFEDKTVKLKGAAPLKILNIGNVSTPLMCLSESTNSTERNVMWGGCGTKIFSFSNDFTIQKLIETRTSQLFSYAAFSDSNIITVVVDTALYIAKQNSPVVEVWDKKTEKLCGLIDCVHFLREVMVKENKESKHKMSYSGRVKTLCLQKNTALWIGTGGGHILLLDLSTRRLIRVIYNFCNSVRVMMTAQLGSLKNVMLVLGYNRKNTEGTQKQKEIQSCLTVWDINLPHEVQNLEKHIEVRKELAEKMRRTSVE
# In short: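 HEK-293T cells transiently transfected with wild-type LRRK2 for 24 h, plated overnight, then treated 2 h at 37° C with compound (top 10 μM, 3-fold, 9 doses, duplicates, 0.2% DMSO). Lysates probed overnight at 23° C by sandwich HTRF for pSer935; 665/615 nm ratio read.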
# LRRK2 wild type enzyme, sequence (Q5S007 whole entry): as above
smiles,measurement,setting,value
"C[C@@H]1C[C@H](n2c(CC(=O)N[C@@H]3C[C@@H]3F)nc3cnc4ccc(C#N)cc4c32)CCO1 [Compound 290, N-[(1R,2S)-2-fluorocyclopropyl]{3-[(2R,4R)-2-methyltetrahydro-2H-pyran-4-yl]-12-cyano-3,5,8-triazatricyclo[7.4.0.0^2,6]trideca-1,4,6,8,10,12-hexaen-4-yl}acetamide]",IC50,[1],0.567 nM
same,IC50,[2],33.4 nM
"Cc1nc(C)c(NC(=O)Cc2nc3cnc4ccc(C#N)cc4c3n2[C@@H]2CCO[C@H](C)C2)c(C)n1 [Compound 253, N-(2,4,6-trimethyl-5-pyrimidinyl){3-[(2R,4R)-2-methyltetrahydro-2H-pyran-4-yl]-12-cyano-3,5,8-triazatricyclo[7.4.0.0^2,6]trideca-1,4,6,8,10,12-hexaen-4-yl}acetamide]",IC50,[1],0.538 nM
same,IC50,[2],25.8 nM
"C[C@@H]1C[C@H](n2c(CC(=O)N[C@H]3C[C@@H](OCc4ccn(C)n4)C3)nc3cnc4ccc(C#N)cc4c32)CCO1 [Compound 367, N-{(1s,3s)-3-[(1-methyl-3-pyrazolyl)methoxy]cyclobutyl}{3-[(2R,4R)-2-methyltetrahydro-2H-pyran-4-yl]-12-cyano-3,5,8-triazatricyclo[7.4.0.0^2,6]trideca-1,4,6,8,10,12-hexaen-4-yl}acetamide]",IC50,[1],0.597 nM
same,IC50,[2],94.8 nM
"CC(=O)N1CC(c2nc3cnc4ccc(C#N)cc4c3n2[C@@H]2CCO[C@H](C)C2)C1 [Compound 63, 2-(1-acetylazetidin-3-yl)-1-[(2R,4R)-2-methyloxan-4-yl]-1H-imidazo[4,5-c]quinoline-8-carbonitrile]",IC50,[1],12.4 nM
same,IC50,[2],1850 nM
"C[C@@H]1C[C@H](n2c([C@@H]3CCCN(C(=O)C4CC4)C3)nc3cnc4ccc(C#N)cc4c32)CCO1 [Compound 28, 2-[(3R)-1-cyclopropanecarbonylpiperidin-3-yl]-1-[(2R,4R)-2-methyloxan-4-yl]-1H-imidazo[4,5-c]quinoline-8-carbonitrile]",IC50,[1],12.3 nM
same,IC50,[2],773 nM
"C[C@@H]1C[C@H](n2c(CS(=O)(=O)C3CC3)nc3cnc4ccc(C5CC5)cc4c32)CCO1 [Compound 62, 2-[(cyclopropanesulfonyl)methyl]-8-cyclopropyl-1-[(2R,4R)-2-methyloxan-4-yl]-1H-imidazo[4,5-c]quinoline]",IC50,[1],16.4 nM
same,IC50,[2],1250 nM
"C[C@@H]1C[C@H](n2c(C3CCN(C(=O)c4cnn(C)c4)CC3)nc3cnc4ccc(C#N)cc4c32)CCO1 [Compound 118, 2-[1-(1-methyl-1H-pyrazole-4-carbonyl)piperidin-4-yl]-1-[(2R,4R)-2-methyloxan-4-yl]-1H-imidazo[4,5-c]quinoline-8-carbonitrile]",IC50,[1],0.855 nM
same,IC50,[2],330 nM
"C[C@@H]1C[C@H](n2c(CC(=O)N[C@H]3C[C@@H]3c3cccnc3)nc3cnc4ccc(C#N)cc4c32)CCO1 [Compound 347, N-[(1S,2R)-2-(3-pyridyl)cyclopropyl]{3-[(2R,4R)-2-methyltetrahydro-2H-pyran-4-yl]-12-cyano-3,5,8-triazatricyclo[7.4.0.0^2,6]trideca-1(9),2(6),4,7,10,12-hexaen-4-yl}acetamide]",IC50,[1],1.28 nM
same,IC50,[2],144 nM
"C[C@@H]1C[C@H](n2c(CC(=O)Nc3ccn(C)c(=O)c3)nc3cnc4ccc(C#N)cc4c32)CCO1 [Compound 280, N-(1-methyl-2-oxo-1,2-dihydro-4-pyridyl){3-[(2R,4R)-2-methyltetrahydro-2H-pyran-4-yl]-12-cyano-3,5,8-triazatricyclo[7.4.0.0^2,6]trideca-1,4,6,8,10,12-hexaen-4-yl}acetamide]",IC50,[1],0.373 nM
same,IC50,[2],495 nM
"Cc1nc(NC(=O)Cc2nc3cnc4ccc(C#N)cc4c3n2[C@@H]2CCO[C@H](C)C2)no1 [Compound 368, N-(5-methyl-1,2,4-oxadiazol-3-yl){3-[(2R,4R)-2-methyltetrahydro-2H-pyran-4-yl]-12-cyano-3,5,8-triazatricyclo[7.4.0.0^2,6]trideca-1(9),2(6),4,7,10,12-hexaen-4-yl}acetamide]",IC50,[1],0.509 nM
same,IC50,[2],16.5 nM
"CC(=O)NCc1nc2cnc3ccc(C#N)cc3c2n1[C@@H]1CCO[C@H](C)C1 [Compound 23, N-({8-cyano-1-[(2R,4R)-2-methyloxan-4-yl]-1H-imidazo[4,5-c]quinolin-2-yl}methyl)acetamide]",IC50,[1],4.74 nM
same,IC50,[2],659 nM
"C[C@@H]1C[C@H](n2c(CC(=O)NCc3cccc(C(F)(F)F)n3)nc3cnc4ccc(C#N)cc4c32)CCO1 [Compound 370, N-{[6-(trifluoromethyl)-2-pyridyl]methyl}{3-[(2R,4R)-2-methyltetrahydro-2H-pyran-4-yl]-12-cyano-3,5,8-triazatricyclo[7.4.0.0^2,6]trideca-1(9),2(6),4,7,10,12-hexaen-4-yl}acetamide]",IC50,[1],0.295 nM
same,IC50,[2],2.74 nM
"C[C@@H]1C[C@H](n2c(CC(=O)N[C@@H](C)c3ccccn3)nc3cnc4ccc(C#N)cc4c32)CCO1 [Compound 189, 2-{8-cyano-1-[(2R,4R)-2-methyloxan-4-yl]-1H-imidazo[4,5-c]quinolin-2-yl}-N-[(1S)-1-(pyridin-2-yl)ethyl]acetamide]",IC50,[1],0.332 nM
same,IC50,[2],1.64 nM
"Cc1cc(C)c(NC(=O)Cc2nc3cnc4ccc(C#N)cc4c3n2[C@@H]2CCO[C@H](C)C2)cn1 [Compound 236, N-(4,6-dimethyl-3-pyridyl){3-[(2R,4R)-2-methyltetrahydro-2H-pyran-4-yl]-12-cyano-3,5,8-triazatricyclo[7.4.0.0^2,6]trideca-1,4,6,8,10,12-hexaen-4-yl}acetamide]",IC50,[1],0.356 nM
same,IC50,[2],7.37 nM
"C[C@@H]1C[C@H](n2c(CC(=O)Nc3cccnc3Cl)nc3cnc4ccc(C#N)cc4c32)CCO1 [Compound 324, N-(2-chloro-3-pyridyl){3-[(2R,4R)-2-methyltetrahydro-2H-pyran-4-yl]-12-cyano-3,5,8-triazatricyclo[7.4.0.0^2,6]trideca-1(9),2(6),4,7,10,12-hexaen-4-yl}acetamide]",IC50,[1],0.536 nM
same,IC50,[2],3.16 nM
"Cc1cnc(NC(=O)Cc2nc3cnc4ccc(C#N)cc4c3n2[C@@H]2CCO[C@H](C)C2)cn1 [Compound 315, N-(5-methyl-2-pyrazinyl){3-[(2R,4R)-2-methyltetrahydro-2H-pyran-4-yl]-12-cyano-3,5,8-triazatricyclo[7.4.0.0^2,6]trideca-1(9),2(6),4,7,10,12-hexaen-4-yl}acetamide]",IC50,[1],0.471 nM
same,IC50,[2],2.52 nM
"COc1ccnc(C)c1NC(=O)Cc1nc2cnc3ccc(C#N)cc3c2n1[C@@H]1CCO[C@H](C)C1 [Compound 227, N-(4-methoxy-2-methyl-3-pyridyl){3-[(2R,4R)-2-methyltetrahydro-2H-pyran-4-yl]-12-cyano-3,5,8-triazatricyclo[7.4.0.0^2,6]trideca-1,4,6,8,10,12-hexaen-4-yl}acetamide]",IC50,[1],0.359 nM
same,IC50,[2],14.4 nM
"C[C@@H]1C[C@H](n2c(C3CC(=O)N(Cc4cnn(C)c4)C3)nc3cnc4ccc(C#N)cc4c32)CCO1 (mixture of isomers) [Compound 58, 2-[(3RS)-1-[(1-methyl-1H-pyrazol-4-yl)methyl]-5-oxopyrrolidin-3-yl]-1-[(2R,4R)-2-methyloxan-4-yl]-1H-imidazo[4,5-c]quinoline-8-carbonitrile]",IC50,[1],1.6 nM
same,IC50,[2],931 nM
"C[C@@H]1C[C@H](n2c(CC(=O)NCC3(C)CC3)nc3cnc4ccc(C#N)cc4c32)CCO1 [Compound 265, N-(1-methylcyclopropyl)methyl{3-[(2R,4R)-2-methyltetrahydro-2H-pyran-4-yl]-12-cyano-3,5,8-triazatricyclo[7.4.0.0^2,6]trideca-1,4,6,8,10,12-hexaen-4-yl}acetamide]",IC50,[1],0.548 nM
same,IC50,[2],22.4 nM
"C[C@@H]1C[C@H](n2c(C3CN(S(C)(=O)=O)C3)nc3cnc4ccc(C#N)cc4c32)CCO1 [Compound 67, 2-(1-methanesulfonylazetidin-3-yl)-1-[(2R,4R)-2-methyloxan-4-yl]-1H-imidazo[4,5-c]quinoline-8-carbonitrile]",IC50,[1],3.03 nM
same,IC50,[2],500 nM
"COc1ncnc(OC)c1NC(=O)Cc1nc2cnc3ccc(C#N)cc3c2n1[C@@H]1CCO[C@H](C)C1 [Compound 247, N-(4,6-dimethoxy-5-pyrimidinyl){3-[(2R,4R)-2-methyltetrahydro-2H-pyran-4-yl]-12-cyano-3,5,8-triazatricyclo[7.4.0.0^2,6]trideca-1(9),2(6),4,7,10,12-hexaen-4-yl}acetamide]",IC50,[1],0.348 nM
same,IC50,[2],4.06 nM
"C[C@@H]1C[C@H](n2c(CC(=O)NC3(c4ccccn4)CC3)nc3cnc4ccc(C#N)cc4c32)CCO1 [Compound 363, N-[1-(2-pyridyl)cyclopropyl]{3-[(2R,4R)-2-methyltetrahydro-2H-pyran-4-yl]-12-cyano-3,5,8-triazatricyclo[7.4.0.0^2,6]trideca-1,4,6,8,10,12-hexaen-4-yl}acetamide]",IC50,[1],0.533 nM
same,IC50,[2],2.05 nM
"C[C@@H]1C[C@H](n2c(CC(=O)NCc3ncccn3)nc3cnc4ccc(Cl)cc4c32)CCO1 [Compound 142, 2-{8-chloro-1-[(2R,4R)-2-methyloxan-4-yl]-1H-imidazo[4,5-c]quinolin-2-yl}-N-[(pyrimidin-2-yl)methyl]acetamide]",IC50,[1],0.565 nM
same,IC50,[2],17.8 nM
"C[C@@H]1C[C@H](n2c(CC(=O)Nc3cccnn3)nc3cnc4ccc(C#N)cc4c32)CCO1 [Compound 168, 2-{8-cyano-1-[(2R,4R)-2-methyloxan-4-yl]-1H-imidazo[4,5-c]quinolin-2-yl}-N-(pyridazin-3-yl)acetamide]",IC50,[1],0.375 nM
same,IC50,[2],8.76 nM
